Measurements from patent US20250075248A1, “SYSTEMS, METHODS, AND DEVICES FOR ANTIMICROBIAL SUSCEPTIBILITY TESTING” (Deepull Diagnostics S.L., priority 2022, published 2025).
In brackets after ≈: the same amount, converted by molar mass.

Experiments:
Format in all cases: cell-based
[1] = system: Klebsiella pneumoniae ATCC13883; assay: Microscopy-based AST (MIC) from spiked blood culture bottle after immunomagnetic separation
Method: First, Streptavidin coated beads were washed and immobilized. The washing buffer and the immobilization process may be different depending on the application. […] The typical binding capacity per mg (100 μL) of magnetic beads used is approximately 20 μg of biotinylated antibody. After the coating, some washes were performed with a phosphate saline buffer containing 0.01% of BSA (w/v) (adjusted pH 7.4) and then beads were finally resuspended to the desired concentration for the application. The antibody used was a biotin Klebsiella Polyclonal Antibody (PA1-73177, Invitrogen) and the magnetic beads used were Dynabeads MyOne Streptavidin T1 (65601, Thermofisher Scientific).
Blood samples were prepared from a previously mixed single large blood pool which was spiked with the appropriate amount of bacteria (Klebsiella pneumoniae ATCC13883) depending on the target inoculum (around 100 CFU). After the pool was spiked, 10 mL were transferred to a previously labelled blood culture system (442023, BD BACTEC™ Plus Aerobic/F) and mixed with an agitation platform (5 minutes at 150 rpm). […]
The immunomagnetic separation of the bacteria was performed using a 15 mL tube containing 5 mL of a matrix extracted from a blood culture bottle and 100 μL of beads coated with anti-K. pneumoniae antibodies. […] The samples were also observed under an inverted fluorescence microscope in order to determine the number of bacteria present in the sample and calculate the adjustment needed to perform the AST test. 5 μL of each sample were transferred to a 384-well plate with flat polystyrene film bottom and incubated with fluorescence dyes (SYBR Green and Propidium Iodide) during 10 minutes at room temperature in the dark. The 384-well plate was centrifuged during 1 minute at 3000 g in a swinging-bucket centrifuge and observed in an inverted fluorescence microscope. […] Images were analyzed with a custom software to determine the number of bacteria. […]
Samples were analyzed at time 0 of incubation and after 5 h incubation (with and without antibiotic). […]

[2] = system: Klebsiella pneumoniae (ATCC13883); assay: Microscopy-based AST (MIC) from liquid culture
Method: Bacteria was grown in a liquid culture until an exponential phase in culture media. The cultures were diluted in culture media (Mueller Hinton cation adjusted broth) and was incubated at a final concentration of 2×10^4 CFU/mL during 5 hours at 37° C. at different concentrations of […] in a final volume of 10 μL. Gentamicin concentrations tested were 4, 2, 1, 0.5, 0.25 and 0.125 mg/L. Three replicates were performed for each antibiotic concentration.
(§1) Samples were analyzed at time 0 of incubation and after 5 hours incubation (with and without antibiotic). Samples were incubated with fluorescence dyes (SYBR Green and Propidium Iodide) during 10 minutes at room temperature in the dark. After dye incubation, a sample of 1 μL was diluted with 4 μL of buffer (NaCl 0.9%) and transferred to a 384-well plate with flat polystyrene film bottom. The 384-well plate was centrifuged during 1 minute at 3000 g in a swinging-bucket movement and observed in an inverted fluorescence microscope. For each sample, a composite image covering the bottom of each well was constructed. Images were analyzed with a custom software to count bacteria, detect filamentous bacteria, counts red bacteria, and record the brightness of bacteria. These images are illustrated in FIG. 23A
This graph is illustrated in FIG. 23B.

[3] = system: Klebsiella pneumoniae (IHMA1977064); assay: Microscopy-based AST (MIC) from liquid culture
Method: The minimal inhibitory concentration was determined using embodiments disclosed herein for one strain of Gram-negative bacteria Klebsiella pneumoniae (IHMA1977064) with an MIC of 8 mg/L to meropenem according to the broth microdilution method. Bacteria was grown in liquid culture until an exponential phase in culture media. The cultures were diluted in culture media (Mueller Hinton cation adjusted broth) and was incubated at a final concentration of 2×10^4 CFU/mL during 5 hours at 37° C. at different concentrations of meropenem in a final volume of 10 μL. Meropenem concentrations tested were 32, 16, 8, 4, 2 and 1 mg/L […]. Three replicates were performed for each antibiotic concentration.
Samples were analyzed at time 0 of incubation and after 5 hours incubation (with and without antibiotic). 5 μL of each sample were transferred to a 384-well plate with flat polystyrene film bottom and incubated with fluorescence dyes (SYBR Green and Propidium Iodide) during 10 minutes at room temperature in the dark. The 384-well plate was centrifuged during 1 minute at 3000 g in a swinging-bucket movement and observed in an inverted fluorescence microscope. For each sample, a composite image covering the bottom of each well was constructed. Images were analyzed with a custom software to count bacteria, detect filamentous bacteria, counts red bacteria, and record the brightness of bacteria. These images are illustrated in FIG. 24A.
This graph is illustrated in FIG. 24B.

[4] = system: Klebsiella pneumoniae (IHMA1977064); assay: Broth microdilution method MIC; conditions: K. pneumoniae IHMA1977064, read-out: MIC according to broth microdilution method
[5] = system: Klebsiella pneumoniae ATCC13883; assay: Broth microdilution method MIC; conditions: K. pneumoniae ATCC13883, read-out: MIC according to broth microdilution method
[6] = system: Klebsiella pneumoniae ATCC13883; assay: Microscopy-based AST (MIC) from spiked blood tube sample after lysis, enrichment and immunomagnetic separation
Method: First, Streptavidin coated beads were washed and immobilized. […] The typical binding capacity per mg (100 μL) of the magnetic beads used is approximately 20 μg of biotinylated antibody. After the coating, some washes with a phosphate saline buffer containing 0.01% of BSA (w/v) (adjusted pH 7.4) were performed. Finally, beads were resuspended to the desired concentration for the application. The antibody used was a biotin Klebsiella Polyclonal Antibody (PA1-73177, Invitrogen) and the magnetic beads used were Dynabeads MyOne Streptavidin T1 (65601, Thermofisher Scientific).
Blood samples were prepared from a single large blood pool from donors collected in 10 mL EDTA blood tubes which was spiked with the appropriate amount of bacteria (Klebsiella pneumoniae ATCC13883) depending on the target inoculum (around 100 CFU/10 mL). After the pool was spiked, 10 mL were transferred to a previously labelled 15 mL tube containing a lysing agent (700 μL of Isolator BC0507C, Oxoid) and an immiscible fluorocarbon oil (20 μL of Fluorinert™ FC-40 F9755, Sigma-Aldrich). To lyse and concentrate, samples were incubated for a short period of time (30 seconds) under rotatory movement at low speed (10 rpm) and centrifugated at 12.000 g force for 5 minutes with a fixed angle rotor. The supernatant of each sample was discarded until 500 μL used to prepare the matrix for the enrichment step. […]
For the immunomagnetic separation of the bacteria from the blood, 100 μL of antibody coated beads were added to each sample tube. […] These samples were also observed under an inverted fluorescence microscope in order to know the bacteria present in the sample and calculate the amount needed to perform the AST test, which was the next and last step in this end-to-end assay. 5 μL of each sample were transferred to a 384-well plate with a flat polystyrene film bottom and incubated with fluorescence dyes (SYBR Green and Propidium Iodide) during 10 min at room temperature in the dark. […]

[7] = system: Staphylococcus aureus susceptible (ATCC29213); assay: Microscopy-based AST (MIC) from liquid culture
Method: (§2) The minimal inhibitory concentration was determined for two strains of Gram-positive bacteria Staphylococcus aureus, one susceptible (ATCC29213) and one resistant (ATCC43300) to erythromycin, according to embodiments described herein. […] Bacteria cultures were diluted in culture media (Mueller Hinton cation adjusted broth) and were incubated at a final concentration of 2×10^4 CFU/mL during 5 hours at 37° C. at different concentrations of […] in a final volume of 10 μL. S. aureus strain susceptible to erythromycin was tested at 1, 0.5, 0.25, 0.125, 0.06 and 0.03 mg/L, whereas resistant strain was tested at 4, 2, 1, 0.5, 0.25 and 0.125 mg/L of erythromycin. Three replicates were performed for each antibiotic concentration.
as §1, with “incubation” for “incubation,”, “bacteria.” for “bacteria. These images are illustrated in FIG. 23A”
(§3) Data obtained from images was used to perform a Graph either for S. aureus susceptible and resistant to erythromycin (FIGS. 25A and 25B, respectively).

[8] = system: Staphylococcus aureus resistant (ATCC43300); assay: Microscopy-based AST (MIC) from liquid culture
Method: as §2
as §1, with “incubation” for “incubation,”, “bacteria.” for “bacteria. These images are illustrated in FIG. 23A”
as §3

[9] = system: Staphylococcus aureus susceptible (ATCC29213); assay: Broth microdilution method MIC; conditions: S. aureus ATCC29213
[10] = system: Staphylococcus aureus resistant (ATCC43300); assay: Broth microdilution method MIC; conditions: S. aureus ATCC43300

With Gentamicin the “bacterial growth after 5 hours incubation” value ([1]; at 0.125 and 0.06 mg/L) was “growth”, the “bacterial growth after 5 hours incubation” value ([1]; at a concentration ≥0.25) was “did not grow” and the MIC ([1]; blood culture bottle sample, 2×10^4 CFU/mL, 5 hours at 37° C., image analysis) was 0.25 µg/mL. The “bacterial growth after 5 hours incubation” value ([2]; at 0.125 mg/L) was “bacterial growth”, the “bacterial growth after 5 hours incubation” value ([2]; at a concentration ≥0.25 mg/L) was “did not grow” and the MIC ([2]; liquid culture, 2×10^4 CFU/mL, 5 hours at 37° C., image analysis) was 0.25 µg/mL.

`C[C@@H](O)[C@H]1C(=O)N2C(C(=O)O)=C(S[C@@H]3CN[C@H](C(=O)N(C)C)C3)[C@H](C)[C@H]12` [meropenem, Meropenem] was tested, and the MIC ([3]; Klebsiella pneumoniae, liquid culture, 2×10^4 CFU/mL, 5 hours at 37° C., image analysis) was 4 µg/mL (≈ 10.4 µM), the “bacterial growth after 5 hours incubation” value ([3]; at 2 and 1 mg/L) was “bacterial growth” and the “bacterial growth after 5 hours incubation” value ([3]; at a concentration ≥4 mg/L) was “did not grow”. The MIC [4] was 8 µg/mL (≈ 20.9 µM).

In the case of `O=C(O)c1cn(C2CC2)c2cc(N3CCNCC3)c(F)cc2c1=O` [ciprofloxacin, Ciprofloxacin], the MIC [5] is reported as 0.03 µg/mL (≈ 0.0905 µM), the MIC ([6]; Klebsiella pneumoniae, ATCC13883, 5 h) is reported as 0.015 µg/mL (≈ 0.0453 µM) and the “bacterial growth after 5 hours incubation” value ([6]; at 0.008 and 0.004 mg/L) is reported as “growth”. For the same compound, the “bacterial growth after 5 hours incubation” value ([6]; at a concentration ≥0.015 mg/L) was “did not grow”.

For `CC[C@H]1OC(=O)[C@H](C)[C@@H](O[C@H]2C[C@@](C)(OC)[C@@H](O)[C@H](C)O2)[C@H](C)[C@@H](O[C@@H]2O[C@H](C)C[C@H](N(C)C)[C@H]2O)[C@](C)(O)C[C@@H](C)C(=O)[C@H](C)[C@@H](O)[C@]1(C)O` [erythromycin, Erythromycin], the MIC ([7]; Staphylococcus aureus, S. aureus ATCC29213, 2×10^4 CFU/mL, 5 hours at 37° C., image analysis) was 0.25 µg/mL (≈ 0.341 µM), the “bacterial growth after 5 hours incubation” value ([7]; at 0.125 mg/L) was “showed growth” and the “bacterial growth after 5 hours incubation” value ([7]; at a concentration ≥0.25 mg/L) was “did not grow”. The MIC ([8]; Staphylococcus aureus, S. aureus ATCC43300, 2×10^4 CFU/mL, 5 hours at 37° C., highest concentration tested 4 mg/L) was ≥ 4 µg/mL, the “bacterial growth after 5 hours incubation” value ([8]; at 4 mg/L and lower concentrations) was “showed growth” and the MIC [9] was 0.25 to 0.5 µg/mL (≈ 0.341 to 0.681 µM). The MIC [10] was ≥ 512 µg/mL.
